Measured values as given in ChEMBL document CHEMBL1255184, “A novel series of positive modulators of the AMPA receptor: structure-based lead optimization” (Bioorg Med Chem Lett, 2010).
Values after ≈ are worked out from the molar mass of the structure shown. Active and inactive are the calls of the source. No cut-off for these calls is given here.

Assays:
[1] = Intrinsic clearance in human microsomes; format: ADME, Microsome
[2] = Intrinsic clearance in rat microsomes; format: ADME, Microsome
[3] = Plasma clearance in Wistar rat at 2 mg/kg, iv; format: ADME, organism-based; design: dose 2 mg/kg, route intravenous
[4] = Half life in Wistar rat at 2 mg/kg, iv; format: ADME, organism-based; design: dose 2 mg/kg, route intravenous; details: in vivo
[5] = Volume of distribution at steady state in Wistar rat at 2 mg/kg, iv; format: ADME, organism-based; design: dose 2 mg/kg, route intravenous; details: in vivo, read-out: Vdss
[6] = Oral bioavailability in Wistar rat at 10 mg/kg; format: ADME, organism-based; details: in vivo
[7] = Solubility of the compound; format: physicochemical
[8] = Ratio of drug level in brain to plasma in Wistar rat; format: ADME
[9] = Inhibition of NMDA receptor
[10] = Inhibition of kainate receptor
[11] = Inhibition of GABA receptor
[12] = test system: Rattus norvegicus; assay: Potentiation of AMPA-induced single unit activity in iv dosed hippocampus of anesthetized rat by electrophysiology assay; format: functional; details: read-out: MED

SMILES | microsomal CLint [1] [µL/min/mg] | microsomal CLint [2] [µL/min/mg] | clearance [3] [L/h/kg] | half-life [4] [h] | Vd [5] [L/kg] | bioavailability [6] [%] | solubility [7] [mg/mL] | Kp [8] | inhibition [9] | inhibition [10] | inhibition [11] | minimal effective dose [12] [mg/kg]
NC(=O)c1c(NC(=O)Cn2nc(C(F)(F)F)c3c2CCNC3)sc2c1CCCC2 | 57 | 33 | – | – | – | – | – | – | – | – | – | –
O=C(Cn1nc(C(F)(F)F)c2c1CCCC2)Nc1sc2c(c1CO)CCCC2 | > 270 | > 270 | – | – | – | – | – | – | – | – | – | –
CNCc1cn(CC(=O)Nc2sc3c(c2C(N)=O)CCCC3)nc1C(F)(F)F | 33 | < 12 | 1.38 | 1.5 | 2.4 | 15 | 0.065 (≈ 156 µM) | – | – | – | – | –
CNCc1cn(CCC(=O)Nc2sc3c(c2C(N)=O)CCCC3)nc1C(F)(F)F | 89 | 49 | – | – | – | – | – | – | – | – | – | –
CNCc1cn(CC(=O)Nc2sc3c(c2C(N)=O)CCCC3)nc1C(C)(C)C | 15 | 15 | 0.54 | 1.9 | 1.1 | 16 | 0.079 (≈ 196 µM) | – | – | – | – | –
CNCc1cn(CC(=O)Nc2sc3c(c2C(=O)NC)CCCC3)nc1C(F)(F)F | 16 | 33 | 2.58 | – | – | – | – | – | – | – | – | –
O=C(Cn1nc(C(F)(F)F)c2c1CCCC2)Nc1sc2c(c1C(=O)N[C@@H]1CCNC1)CCCC2 | – | – | 0.138 | 3.8 | 0.5 | 4 | 0.02 (≈ 40.4 µM) | 1.03 | – | – | – | –
CCNCc1cn(CC(=O)Nc2sc3c(c2C(N)=O)CCCC3)nc1C(F)(F)F | < 12 | < 19 | 0.9 | 1.1 | 0.6 | 43 | 0.107 (≈ 249 µM) | 0.05 | inactive | inactive | inactive | 0.3
CCN(CC)Cc1cn(CC(=O)Nc2sc3c(c2C(N)=O)CCCC3)nc1C(F)(F)F | > 270 | > 270 | – | – | – | – | – | – | – | – | – | –
